Where no end group is shown, it is not given here. [ ]: non-standard residue; d: D form. Lys(Me3) = C[N+](C)(C)CCCC[C@H](N)C(=O)O
What was measured:
Experiment in all cases: Histone peptide microarray
Format in all cases: binding, human
Settings in all cases: total n = 4
PHF21A = tested on: PHF21A
Summary of the method: (§1)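 Mean ± SD of 4 replicate array intensities; GST-PHD finger at 0.5 μM against 293 PTM-bearing histone peptides.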

KDM5A (1) = tested on: KDM5A (1)
Summary of the method: as §1

ING3 = tested on: ING3
Summary of the method: as §1

ING2 = tested on: ING2
Summary of the method: as §1

ING1 = tested on: ING1
Summary of the method: as §1

PHF23 = tested on: PHF23
Summary of the method: as §1

CHD5 (PCC) = tested on: CHD5 (PCC)
Summary of the method: as §1

PHF8 = tested on: PHF8
Summary of the method: as §1

DIDO1 = tested on: DIDO1
Summary of the method: as §1

KDM4C (TTP) = tested on: KDM4C (TTP)
Summary of the method: as §1

PHF2 = tested on: PHF2
Summary of the method: as §1

DPF2 (PPC2W2) = tested on: DPF2 (PPC2W2)
Summary of the method: as §1

BAZ2B = tested on: BAZ2B
Summary of the method: as §1

KDM5B (3) = tested on: KDM5B (3)
Summary of the method: as §1

RAG2 = tested on: RAG2
Summary of the method: as §1

KDM5B (1) = tested on: KDM5B (1)
Summary of the method: as §1

BPTF (PB) = tested on: BPTF (PB)
Summary of the method: as §1

PHRF1 (RP) = tested on: PHRF1 (RP)
Summary of the method: as §1

MLL5 = tested on: MLL5
Summary of the method: as §1

AIRE (PP) = tested on: AIRE (PP)
Summary of the method: as §1

TRIM66 (PB) = tested on: TRIM66 (PB)
Summary of the method: as §1

PHF13 = tested on: PHF13
Summary of the method: as §1

CHD5 (PPCC) = tested on: CHD5 (PPCC)
Summary of the method: as §1

CHD4 (PPCC) = tested on: CHD4 (PPCC)
Summary of the method: as §1

ING4 = tested on: ING4
Summary of the method: as §1

KDM5A (3) = tested on: KDM5A (3)
Summary of the method: as §1

MORC3 (CW) = tested on: MORC3 (CW)
Summary of the method: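 Purified PHD finger domains fused to GST are screened against 293 synthetic histone peptides bearing one or several post-translational modifications. The protein is used at 0.5 μM, and the signal from four replicate arrays is averaged, with standard deviation given.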

SP140L = tested on: SP140L
Summary of the method: as §1

ING5 = tested on: ING5
Summary of the method: as §1

KDM7A = tested on: KDM7A
Summary of the method: as §1

TAF3 = tested on: TAF3
Summary of the method: as §1

[1] = sheet "Array Heatmap", GST-tagged reader, histone peptide array

Substance: H3K4me3 (1-7): H3 1-7 (ART[Lys(Me3)]QTA; UniProt P68431 2-8, looked up, fragment)
- Array Heatmap value (peptide array signal) (PHF21A; PHF21A, sheet "Array Heatmap", each array performed twice): 0.4644
- Array Heatmap value (peptide array signal) (KDM5A (1); KDM5A (1), sheet "Array Heatmap", each array performed twice): 0.4902
- Array Heatmap value (peptide array signal) (ING3; ING3, sheet "Array Heatmap", each array performed twice): 0.472
- Array Heatmap value (peptide array signal) (ING2; ING2, sheet "Array Heatmap", each array performed twice): 0.6464
- Array Heatmap value (peptide array signal) (ING1; ING1, sheet "Array Heatmap", each array performed twice): 0.5185
- Array Heatmap value (peptide array signal) (PHF23; PHF23, sheet "Array Heatmap", each array performed twice): 0.5369
- Array Heatmap value (peptide array signal) (CHD5 (PCC); CHD5 (PCC), sheet "Array Heatmap", each array performed twice): 0.8146
- Array Heatmap value (peptide array signal) (PHF8; PHF8, sheet "Array Heatmap", each array performed twice): 0.544
- Array Heatmap value (peptide array signal) (DIDO1; DIDO1, sheet "Array Heatmap", each array performed twice): 0.6423
- Array Heatmap value (peptide array signal) (KDM4C (TTP); KDM4C (TTP), sheet "Array Heatmap", each array performed twice): 0.5656
- Array Heatmap value (peptide array signal) (PHF2; PHF2, sheet "Array Heatmap", each array performed twice): 0.4609
- Array Heatmap value (peptide array signal) (DPF2 (PPC2W2); DPF2 (PPC2W2), sheet "Array Heatmap", each array performed twice): 0.6324
- Array Heatmap value (peptide array signal) (BAZ2B; BAZ2B, sheet "Array Heatmap", each array performed twice): 0.5069
- Array Heatmap value (peptide array signal) (KDM5B (3); KDM5B (3), sheet "Array Heatmap", each array performed twice): 0.5187
- Array Heatmap value (peptide array signal) (RAG2; RAG2, sheet "Array Heatmap", each array performed twice): 0.3345
- Array Heatmap value (peptide array signal) (KDM5B (1); KDM5B (1), sheet "Array Heatmap", each array performed twice): 0.7094
- Array Heatmap value (peptide array signal) (BPTF (PB); BPTF (PB), sheet "Array Heatmap", each array performed twice): 0.3708
- Array Heatmap value (peptide array signal) (PHRF1 (RP); PHRF1 (RP), sheet "Array Heatmap", each array performed twice): 0.3886
- Array Heatmap value (peptide array signal) (MLL5; MLL5, sheet "Array Heatmap", each array performed twice): 0.7048
- Array Heatmap value (peptide array signal) (AIRE (PP); AIRE (PP), sheet "Array Heatmap", each array performed twice): 0.5351
- Array Heatmap value (peptide array signal) (TRIM66 (PB); TRIM66 (PB), sheet "Array Heatmap", each array performed twice): 0.5289
- Array Heatmap value (peptide array signal) (PHF13; PHF13, sheet "Array Heatmap", each array performed twice): 0.6272
- Array Heatmap value (peptide array signal) (CHD5 (PPCC); CHD5 (PPCC), sheet "Array Heatmap", each array performed twice): 0.5698
- Array Heatmap value (peptide array signal) (CHD4 (PPCC); CHD4 (PPCC), sheet "Array Heatmap", each array performed twice): 0.5649
- Array Heatmap value (peptide array signal) (ING4; ING4, sheet "Array Heatmap", each array performed twice): 0.4911
- Array Heatmap value (peptide array signal) (KDM5A (3); KDM5A (3), sheet "Array Heatmap", each array performed twice): 0.5067
- Array Heatmap value (peptide array signal) (MORC3 (CW); MORC3 (CW), sheet "Array Heatmap", each array performed twice): 0.489
- Array Heatmap value (peptide array signal) (SP140L; SP140L, sheet "Array Heatmap", each array performed twice): 0.3724
- Array Heatmap value (peptide array signal) (ING5; ING5, sheet "Array Heatmap", each array performed twice): 0.4084
- Array Heatmap value (peptide array signal) (KDM7A; KDM7A, sheet "Array Heatmap", each array performed twice): 0.7221
- Array Heatmap value (peptide array signal) (TAF3; TAF3, sheet "Array Heatmap", each array performed twice): 0.3574

Substance: H3K4me3 + K9ac: H3 1-20
- Array Heatmap signal (histone peptide microarray) (PHF21A; GST-tagged PHF21A, sheet Array Heatmap, each array performed twice): 0.4382
- Array Heatmap signal (histone peptide microarray) (KDM5A (1); GST-tagged KDM5A (1), sheet Array Heatmap, each array performed twice): 0.468
- Array Heatmap signal (histone peptide microarray) (ING3; GST-tagged ING3, sheet Array Heatmap, each array performed twice): 0.8165
- Array Heatmap signal (histone peptide microarray) (ING2; GST-tagged ING2, sheet Array Heatmap, each array performed twice): 0.8738
- Array Heatmap signal (histone peptide microarray) (ING1; GST-tagged ING1, sheet Array Heatmap, each array performed twice): 0.8182
- Array Heatmap signal (histone peptide microarray) (PHF23; GST-tagged PHF23, sheet Array Heatmap, each array performed twice): 0.8466
- Array Heatmap signal (histone peptide microarray) (CHD5 (PCC); GST-tagged CHD5 (PCC = PHD + Dual Chromodomain), sheet Array Heatmap, each array performed twice): 0.7875
- Array Heatmap signal (histone peptide microarray) (PHF8; GST-tagged PHF8, sheet Array Heatmap, each array performed twice): 0.6077
- Array Heatmap signal (histone peptide microarray) (DIDO1; GST-tagged DIDO1, sheet Array Heatmap, each array performed twice): 0.9386
- Array Heatmap signal (histone peptide microarray) (KDM4C (TTP); GST-tagged KDM4C (TTP = Tandem Tudor domain + PHD), sheet Array Heatmap, each array performed twice): 0.5829
- Array Heatmap signal (histone peptide microarray) (PHF2; GST-tagged PHF2, sheet Array Heatmap, each array performed twice): 0.9106
- Array Heatmap signal (histone peptide microarray) (DPF2 (PPC2W2); GST-tagged DPF2 (PPC2W2 = Dual PHD + C2W2-type Zn-finger), sheet Array Heatmap, each array performed twice): 0.7108
- Array Heatmap signal (histone peptide microarray) (BAZ2B; GST-tagged BAZ2B, sheet Array Heatmap, each array performed twice): 0.4768
- Array Heatmap signal (histone peptide microarray) (KDM5B (3); GST-tagged KDM5B (3), sheet Array Heatmap, each array performed twice): 0.7448
- Array Heatmap signal (histone peptide microarray) (RAG2; GST-tagged RAG2, sheet Array Heatmap, each array performed twice): 0.8735
- Array Heatmap signal (histone peptide microarray) (KDM5B (1); GST-tagged KDM5B (1), sheet Array Heatmap, each array performed twice): 0.7027
- Array Heatmap signal (histone peptide microarray) (BPTF (PB); GST-tagged BPTF (PB = PHD + Bromodomain), sheet Array Heatmap, each array performed twice): 0.6012
- Array Heatmap signal (histone peptide microarray) (PHRF1 (RP); GST-tagged PHRF1 (RP), sheet Array Heatmap, each array performed twice): 0.6133
- Array Heatmap signal (histone peptide microarray) (MLL5; GST-tagged MLL5, sheet Array Heatmap, each array performed twice): 0.8313
- Array Heatmap signal (histone peptide microarray) (AIRE (PP); GST-tagged AIRE (PP), sheet Array Heatmap, each array performed twice): 0.4068
- Array Heatmap signal (histone peptide microarray) (TRIM66 (PB); GST-tagged TRIM66 (PB = PHD + Bromodomain), sheet Array Heatmap, each array performed twice): 0.6603
- Array Heatmap signal (histone peptide microarray) (PHF13; GST-tagged PHF13, sheet Array Heatmap, each array performed twice): 0.7477
- Array Heatmap signal (histone peptide microarray) (CHD5 (PPCC); GST-tagged CHD5 (PPCC = Dual PHD + Dual Chromodomain), sheet Array Heatmap, each array performed twice): 0.5612
- Array Heatmap signal (histone peptide microarray) (CHD4 (PPCC); GST-tagged CHD4 (PPCC = Dual PHD + Dual Chromodomain), sheet Array Heatmap, each array performed twice): 0.6185
- Array Heatmap signal (histone peptide microarray) (ING4; GST-tagged ING4, sheet Array Heatmap, each array performed twice): 0.6305
- Array Heatmap signal (histone peptide microarray) (KDM5A (3); GST-tagged KDM5A (3), sheet Array Heatmap, each array performed twice): 0.93
- Array Heatmap signal (histone peptide microarray) (MORC3 (CW); GST-tagged MORC3 (CW = CW-type Zn-finger), sheet Array Heatmap, each array performed twice): 0.7776
- Array Heatmap signal (histone peptide microarray) (SP140L; GST-tagged SP140L, sheet Array Heatmap, each array performed twice): 0.3446
- Array Heatmap signal (histone peptide microarray) (ING5; GST-tagged ING5, sheet Array Heatmap, each array performed twice): 0.4241
- Array Heatmap signal (histone peptide microarray) (KDM7A; GST-tagged KDM7A, sheet Array Heatmap, each array performed twice): 0.4556
- Array Heatmap signal (histone peptide microarray) (TAF3; GST-tagged TAF3, sheet Array Heatmap, each array performed twice): 0.7366

Substance: H3R17me2a: H3 1-20 [Peptide H3R17me2a]
- Array Heatmap signal, PHF21A (PHF21A; [1]): 0.2924
- Array Heatmap signal, KDM5A (1) (KDM5A (1); [1]): 0.3023
- Array Heatmap signal, ING3 (ING3; [1]): 0.3691
- Array Heatmap signal, ING2 (ING2; [1]): 0.6139
- Array Heatmap signal, ING1 (ING1; [1]): 0.5124
- Array Heatmap signal, PHF23 (PHF23; [1]): 0.499
- Array Heatmap signal, CHD5 (PCC) (CHD5 (PCC); [1]): 0.5481
- Array Heatmap signal, PHF8 (PHF8; [1]): 0.337
- Array Heatmap signal, DIDO1 (DIDO1; [1]): 0.6933
- Array Heatmap signal, KDM4C (TTP) (KDM4C (TTP); [1]): 0.2915
- Array Heatmap signal, PHF2 (PHF2; [1]): 0.6186
- Array Heatmap signal, DPF2 (PPC2W2) (DPF2 (PPC2W2); [1]): 0.5665
- Array Heatmap signal, BAZ2B (BAZ2B; [1]): 0.3052
- Array Heatmap signal, KDM5B (3) (KDM5B (3); [1]): 0.4098
- Array Heatmap signal, RAG2 (RAG2; [1]): 0.3136
- Array Heatmap signal, KDM5B (1) (KDM5B (1); [1]): 0.4837
- Array Heatmap signal, BPTF (PB) (BPTF (PB); [1]): 0.2765
- Array Heatmap signal, PHRF1 (RP) (PHRF1 (RP); [1]): 0.5177
- Array Heatmap signal, MLL5 (MLL5; [1]): 0.5506
- Array Heatmap signal, AIRE (PP) (AIRE (PP); [1]): 0.3243
- Array Heatmap signal, TRIM66 (PB) (TRIM66 (PB); [1]): 0.5152
- Array Heatmap signal, PHF13 (PHF13; [1]): 0.4423
- Array Heatmap signal, CHD5 (PPCC) (CHD5 (PPCC); [1]): 0.3709
- Array Heatmap signal, CHD4 (PPCC) (CHD4 (PPCC); [1]): 0.4461
- Array Heatmap signal, ING4 (ING4; [1]): 0.3252
- Array Heatmap signal, KDM5A (3) (KDM5A (3); [1]): 0.5532
- Array Heatmap signal, MORC3 (CW) (MORC3 (CW); [1]): 0.4952
- Array Heatmap signal, SP140L (SP140L; [1]): 0.2774
- Array Heatmap signal, ING5 (ING5; [1]): 0.2247
- Array Heatmap signal, KDM7A (KDM7A; [1]): 0.2428
- Array Heatmap signal, TAF3 (TAF3; [1]): 0.2956

From PMC6979384, “Characterization of the plant homeodomain (PHD) reader family for their histone tail interactions” (Epigenetics & Chromatin, 2020)
